Measurements reported in patent publication US20240109842A1, “ACRYLAMIDE COMPOUNDS” (OTSUKA PHARMACEUTICAL CO., LTD., priority 2019, published 2024).
Like-named read-outs stand apart in the source and are kept apart here.

Test system: immortalized megakaryocyte cell line
Assay: Test Example 1: platelet production, shake culturing
Type: cell-based
Settings: for fold induction at 10 µM: Platelet, 144 h, read-out: Amount of platelet production (vs. Control); for Amount of platelet production (vs. Control): aryl hydrocarbon receptor antagonist Compound A5 0.1 μM added at cell seeding, counted after 6 days
Protocol: The immortalized megakaryocyte cell line obtained according to the method described in WO 2016/204256 was washed twice with D-PBS(−) and then cultured in medium not containing doxycycline to terminate forced expression (cultured under conditions where gene expression is OFF). Shake culturing at 100 rpm was performed in the following medium after the cells were seeded in a 125-mL polycarbonate Erlenmeyer flask (Corning #431143) at 25 mL/flask and a seeding density of 1×10^5 cells/mL. Culturing conditions were 37° C. and 5% CO2. The medium was obtained by adding the following components to IMDM serving as the basal medium (concentrations indicate final concentrations). • FBS 15% • L-Glutamine 2 mM • ITS 100-fold dilution • MTG 450 μM • Ascorbic acid 50 μg/mL • SCF 50 ng/mL • TA-316 0.1 μg/mL • ADAM inhibitor 15 μM • ROCK inhibitor 0.5 μM […] After culturing for 6 days in total, the number of platelets was measured. The measurement method was as follows. The same operation was performed for control. At 6 days after initiation of the culturing under conditions where gene expression was OFF, a part of the culture supernatant was collected, and suspended with the following antibody and Flow-Count Fluorospheres (Beckman Coulter #7547053) to perform staining. • APC-labeled anti-CD41 antibody (BioLegend #303710) • eFluor 450-labeled anti-CD42a antibody (eBioscience #48-0428-42) • PE-labeled anti-CD42b antibody (BioLegend #303906) At 30 minutes after staining, number of platelets (CD41, CD42a and CD42b-positive cells) was counted by using FACSVerse (manufactured by BD Japan) with Flow-Count Fluorospheres. The number of platelets was given as a percentage of the control.

[1] = DMSO added at cell seeding (no AhR antagonist), compound 10 μM added at Day 3, platelets (CD41, CD42a, CD42b-positive) counted after 6 days

Row | Structure (SMILES) | fold induction at 10 µM | Amount of platelet production (vs. Control) (compound 10 μM added at Day 3) | fold induction at 10 µM [1]
1 | COc1cccc2c(/C=C/C(=O)NCCc3ccccc3-c3ccccc3)c[nH]c12 [Example 2] | 1.5 to 6.5 | ++ (not less than 6.5 times) | –
2 | CCSc1ccccc1CCNC(=O)/C=C/c1c[nH]c2c(OC)cccc12 [Example 3] | – | ++ (not less than 6.5 times) | 1.5 to 6.5
3 | COc1cccc2c(/C=C/C(=O)NCCc3ccccc3CSC)c[nH]c12 [Example 4] | 1.5 to 6.5 | ++ (not less than 6.5 times) | –
4 | CCNc1ccccc1CCNC(=O)/C=C/c1c[nH]c2c(OC)cccc12 [Example 5] | – | ++ (not less than 6.5 times) | 1.5 to 6.5
5 | COc1cccc2c(/C=C/C(=O)NCCc3ccccc3OCC3CC3)c[nH]c12 [Example 6] | 1.5 to 6.5 | ++ (not less than 6.5 times) | –
6 | COc1cccc2c(/C=C/C(=O)NCCc3ccccc3-c3ccccn3)c[nH]c12 [Example 7] | – | ++ (not less than 6.5 times) | 1.5 to 6.5
7 | COC(=O)c1ccccc1CCNC(=O)/C=C/c1c[nH]c2c(OC)cccc12 [Example 8] | – | ++ (not less than 6.5 times) | 1.5 to 6.5
8 | CCSc1ccccc1CCNC(=O)/C=C/c1cn(C(C)=O)c2c(OC)cccc12 [Example 9] | – | ++ (not less than 6.5 times) | 1.5 to 6.5
9 | COc1cccc2c(/C=C/C(=O)N(C)CCc3ccccc3OCC3CC3)cn(C)c12 [Example 10, (E)-N-[2-[2-(cyclopropylmethoxy)phenyl]ethyl]-3-(7-methoxy-1-methylindol-3-yl)-N-methylprop-2-enamide] | – | ++ (not less than 6.5 times) | 1.5 to 6.5
10 | CCOc1ccsc1CCNC(=O)/C=C/c1c[nH]c2c(OC)cccc12 [Example 11] | – | ++ (not less than 6.5 times) | 1.5 to 6.5
11 | COc1cccc2c(/C=C/C(=O)NCCc3cc(F)ccc3-c3ccccc3)c[nH]c12 [Example 12] | – | ++ (not less than 6.5 times) | 1.5 to 6.5
12 | COc1ccc(-c2ccccc2)c(CCNC(=O)/C=C/c2c[nH]c3c(OC)cccc23)c1 [Example 13] | – | ++ (not less than 6.5 times) | 1.5 to 6.5
13 | COc1cccc2c(/C=C/C(=O)NCCc3ccccc3-c3nccs3)c[nH]c12 [Example 14] | 1.5 to 6.5 | ++ (not less than 6.5 times) | –
14 | COc1cccc2c(/C=C/C(=O)NCCc3ccccc3-c3ncco3)c[nH]c12 [Example 15] | > 6.5 | ++ (not less than 6.5 times) | –
15 | COc1cccc2c(/C=C/C(=O)NCCc3ccccc3-c3ncccn3)c[nH]c12 [Example 17, (E)-3-(7-methoxy-1H-indol-3-yl)-N-[2-(2-pyrimidin-2-ylphenyl)ethyl]prop-2-enamide] | – | ++ (not less than 6.5 times) | 1.5 to 6.5
16 | COc1cccc2c(/C=C/C(=O)NCCc3ccccc3-c3cccs3)c[nH]c12 [Example 19, (E)-3-(7-methoxy-1H-indol-3-yl)-N-[2-(2-thiophene-2-ylphenyl)ethyl]prop-2-enamide] | – | ++ (not less than 6.5 times) | 1.5 to 6.5
17 | COc1cccc2c(/C=C/C(=O)NCCc3ccccc3-c3ccsc3)c[nH]c12 [Example 20] | 1.5 to 6.5 | ++ (not less than 6.5 times) | –
18 | COc1cccc2c(/C=C/C(=O)NCCc3sccc3-c3ccccc3)c[nH]c12 [Example 21] | 1.5 to 6.5 | ++ (not less than 6.5 times) | –
19 | COc1cccc2c(/C=C/C(=O)NCCc3ccsc3-c3ccccc3)c[nH]c12 [Example 22] | 1.5 to 6.5 | ++ (not less than 6.5 times) | –
